Assay results as given in ChEMBL document CHEMBL4433228, “Identification and immunological evaluation of novel TLR2 agonists through structure optimization of Pam3CSK4” (Bioorg Med Chem, 2019).
pEC50: −log10 of the molar value. Activity calls are given as the source filed them. The calls are words filed in the database; no cut-off is given here. Residues, ends and D or L forms follow the SMILES beside them. *: point of attachment. Propyl(2R-PamO,3-PamO) = CCCCCCCCCCCCCCCC(=O)OC[C@H](C*)OC(=O)CCCCCCCCCCCCCCC; Palmitoyl = CCCCCCCCCCCCCCCC(=O)*

Legend:
[1] = (§1) Effect on IL-6 mRNA expression in TLR2-/- mouse BMDM cells at 0.1 to 1 uM by qRT-PCR analysis; type: ADME, cell-based
[2] = as §1; type: ADME, cell-based; remark: listed apart in the source
[3] = target: Toll-like receptor 2 (Mus musculus) (UniProt Q9QUN7); assay: Agonist activity at TLR2 in wild type mouse BMDM cells assessed as induction of NFkappaB pathway activation by measuring increase in IL-6 mRNA expression by qRT-PCR analysis; type: cell-based
Chain of Toll-like receptor 2 (Mus musculus) (Q9QUN7 whole entry): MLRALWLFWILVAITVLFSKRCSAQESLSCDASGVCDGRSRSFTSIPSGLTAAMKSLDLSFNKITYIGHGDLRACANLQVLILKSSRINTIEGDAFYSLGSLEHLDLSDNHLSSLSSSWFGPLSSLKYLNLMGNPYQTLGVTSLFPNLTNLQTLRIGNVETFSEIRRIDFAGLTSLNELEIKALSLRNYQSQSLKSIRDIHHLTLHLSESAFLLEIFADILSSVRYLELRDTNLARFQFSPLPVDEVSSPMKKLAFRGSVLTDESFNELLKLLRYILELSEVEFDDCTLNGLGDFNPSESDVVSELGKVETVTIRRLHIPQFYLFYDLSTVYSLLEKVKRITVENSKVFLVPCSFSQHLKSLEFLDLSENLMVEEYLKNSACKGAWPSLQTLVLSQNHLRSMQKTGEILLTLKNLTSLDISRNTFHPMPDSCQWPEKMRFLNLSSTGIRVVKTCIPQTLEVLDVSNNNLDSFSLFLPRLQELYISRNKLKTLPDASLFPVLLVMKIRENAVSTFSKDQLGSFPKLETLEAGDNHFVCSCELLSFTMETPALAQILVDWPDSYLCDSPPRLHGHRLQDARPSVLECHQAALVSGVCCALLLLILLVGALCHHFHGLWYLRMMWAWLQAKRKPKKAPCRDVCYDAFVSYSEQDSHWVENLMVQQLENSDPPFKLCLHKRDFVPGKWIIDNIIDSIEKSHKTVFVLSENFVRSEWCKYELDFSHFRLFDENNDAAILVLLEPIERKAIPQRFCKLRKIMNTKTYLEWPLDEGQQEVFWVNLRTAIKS

[4] = target: Toll-like receptor 2 (Mus musculus) (UniProt Q9QUN7); assay: Agonist activity at TLR2 in mouse dendritic cells assessed as upregulation CD80 expression at 100 ng/ml by flow cytometry; type: cell-based
THP-1 [5] = assay: Agonist activity at TLR2/1 in PMA-differentiated human THP-1 cells assessed as induction of IL-6 production at 2.5 uM incubated for 24 hrs after preincubation with anti-hTLR1-IGG for 2 hrs by ELISA; type: cell-based
TLR2/TLR6 (Homo sapiens) [6] = target: T1, TLR2/TLR6 (Homo sapiens) (UniProt O60603+Q9Y2C9); assay: Agonist activity at TLR2/6 in PMA-differentiated human THP-1 cells assessed as induction of IL-6 production at 2.5 uM incubated for 24 hrs after preincubation with anti-hTLR6-IGG for 2 hrs by ELISA; type: cell-based
BMDM [7] = assay: Effect on IL-12 production in TLR2-/- mouse BMDM cells at 0.1 to 1 uM incubated for 24 hrs by ELISA; type: functional, cell-based
BMDM [8] = assay: Effect on IL-6 production in TLR2-/- mouse BMDM cells at 0.1 to 1 uM incubated for 24 hrs by ELISA; type: functional, cell-based
BMDM [9] = assay: Effect on TNFalpha production in TLR2-/- mouse BMDM cells at 0.1 to 1 uM incubated for 24 hrs by ELISA; type: functional, cell-based
[10] = target: Toll-like receptor 2 (Mus musculus) (UniProt Q9QUN7); assay: Agonist activity at TLR2 in mouse BV2 cells assessed as increase in IL-6 secretion at 1 uM incubated for 24 hrs in presence of NF-kappaB inhibitor triptolide by ELISA; type: cell-based
[11] = target: Toll-like receptor 2 (Mus musculus) (UniProt Q9QUN7); assay: Activation of TLR2 in wild type mouse BMDM cells assessed as stimulation of IL-6 production at 0.1 to 1 uM incubated for 24 hrs by ELISA; type: cell-based
[12] = target: Toll-like receptor 1/2 (Homo sapiens) (UniProt O60603+Q15399); assay: Agonist activity at TLR2/1 in PMA-differentiated human THP-1 cells assessed as induction of IL-6 production at 2.5 uM incubated for 24 hrs after preincubation with anti-hTLR2-IGA for 2 hrs by ELISA; type: cell-based
[13] = target: Toll-like receptor 2 (Mus musculus) (UniProt Q9QUN7); assay: Activation of TLR2 in wild type mouse BMDM cells assessed as stimulation of IL-12 production at 0.1 to 1 uM incubated for 24 hrs by ELISA; type: cell-based
[14] = target: Toll-like receptor 2 (Mus musculus) (UniProt Q9QUN7); assay: Activation of TLR2 in wild type mouse BMDM cells assessed as stimulation of TNFalpha production at 0.1 to 1 uM incubated for 24 hrs by ELISA; type: cell-based
[15] = target: Toll-like receptor 2 (Mus musculus) (UniProt Q9QUN7); assay: Agonist activity at TLR2 in mouse BV2 cells assessed as increase in IL-6 secretion at 2 uM incubated for 24 hrs by ELISA; type: cell-based
BV-2 [16] = assay: Cytotoxicity against mouse BV2 cells assessed as cell viability up to 5 uM incubated for 24 hrs by CCK-8 assay; type: cell-based; details: bv-2, 24 h
BV-2 [17] = assay: Effect on IkappaBalpha protein expression in mouse BV2 cells at 0.2 to 2 uM incubated for 12 hrs by Western blot analysis; type: ADME, cell-based; details: bv-2, 12 h
TLR2/TLR6 (Homo sapiens) [18] = target: T1, TLR2/TLR6 (Homo sapiens); assay: Agonist activity at TLR2/6 in PMA-differentiated human THP-1 cells assessed as induction of IL-6 production at 2.5 uM incubated for 24 hrs after preincubation with […] for 2 hrs by ELISA; type: cell-based
[19] = target: Toll-like receptor 1/2 (Mus musculus) (UniProt Q9QUN7+Q9EPQ1); assay: Agonist activity at TLR2/1 in mouse BV2 cells assessed as induction of IL-6 production at 2 uM incubated for 24 hrs in presence of TLR2/1 inhibitor CU-CPT22 by ELISA; type: cell-based
[20] = target: Toll-like receptor 2 (Mus musculus) (UniProt Q9QUN7); assay: Agonist activity at TLR2 in mouse BV2 cells assessed as stimulation of NFkappaB pathway by measuring increase in IkappaBalpha phosphorylation incubated for 12 hrs by Western blot analysis; type: cell-based
[21] = target: Toll-like receptor 2 (Mus musculus) (UniProt Q9QUN7); assay: Agonist activity at TLR2 in mouse RAW264.7 cells assessed as induction of IL-6 production incubated for 24 hrs by ELISA; type: cell-based
[22] = target: Toll-like receptor 2 (Mus musculus) (UniProt Q9QUN7); assay: Agonist activity at TLR2 in mouse dendritic cells assessed as upregulation CD86 expression at 100 ng/ml by flow cytometry; type: cell-based
[23] = target: Toll-like receptor 2 (Mus musculus) (UniProt Q9QUN7); assay: Agonist activity at TLR2 in mouse dendritic cells assessed as upregulation MHC class 2 expression at 100 ng/ml by flow cytometry; type: cell-based
[24] = target: Toll-like receptor 2 (Homo sapiens) (UniProt O60603); assay: Agonist activity at human TLR2 in PMA-differentiated THP-1 cells assessed as induction of IL-6 production at 0.5 to 2.5 uM incubated for 24 hrs by ELISA; type: cell-based
Chain of Toll-like receptor 2 (Homo sapiens) (O60603 whole entry): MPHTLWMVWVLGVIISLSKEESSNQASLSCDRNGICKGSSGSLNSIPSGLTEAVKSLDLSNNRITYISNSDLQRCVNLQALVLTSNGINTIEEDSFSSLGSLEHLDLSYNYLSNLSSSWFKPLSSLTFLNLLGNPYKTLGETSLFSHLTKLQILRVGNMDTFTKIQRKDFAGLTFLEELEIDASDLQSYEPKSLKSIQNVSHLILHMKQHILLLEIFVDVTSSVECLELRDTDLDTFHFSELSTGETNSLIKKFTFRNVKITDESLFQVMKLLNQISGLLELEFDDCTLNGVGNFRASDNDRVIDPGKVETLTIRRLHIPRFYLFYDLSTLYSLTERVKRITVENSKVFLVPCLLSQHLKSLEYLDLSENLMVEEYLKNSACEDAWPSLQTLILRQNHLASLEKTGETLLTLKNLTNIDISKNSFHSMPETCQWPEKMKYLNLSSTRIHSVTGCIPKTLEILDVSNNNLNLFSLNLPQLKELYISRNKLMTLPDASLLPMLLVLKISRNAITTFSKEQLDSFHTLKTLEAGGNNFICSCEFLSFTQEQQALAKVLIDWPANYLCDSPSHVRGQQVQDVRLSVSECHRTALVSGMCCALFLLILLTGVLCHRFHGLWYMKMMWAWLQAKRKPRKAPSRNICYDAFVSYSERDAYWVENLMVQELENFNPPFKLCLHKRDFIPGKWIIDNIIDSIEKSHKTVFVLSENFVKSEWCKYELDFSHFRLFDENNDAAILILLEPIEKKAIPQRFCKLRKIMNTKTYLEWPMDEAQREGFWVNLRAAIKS

Toll-like receptor 2 = Toll-like receptor 2 (Mus musculus, UniProt Q9QUN7); assay: Agonist activity at TLR2 in wild type mouse BMDM cells assessed as induction of NFkappaB pathway activation by measuring increase in TNF-alpha mRNA expression by qRT-PCR analysis; type: cell-based
Chain of Toll-like receptor 2 (Q9QUN7 whole entry): as the sequence (Q9QUN7 whole entry) above

Dendritic cell [25] = assay: Effect on CD80 expression in TLR2-/- mouse dendritic cells at 100 ng/ml by flow cytometry; type: ADME, cell-based
Dendritic cell [26] = assay: Effect on CD86 expression in TLR2-/- mouse dendritic cells at 100 ng/ml by flow cytometry; type: ADME, cell-based
Dendritic cell [27] = assay: Effect on MHC class 2 expression in TLR2-/- mouse dendritic cells at 100 ng/ml by flow cytometry; type: ADME, cell-based
THP-1 [28] = assay: Cytotoxicity against human THP1 cells assessed as cell viability up to 5 uM incubated for 24 hrs by CCK-8 assay; type: cell-based; details: thp-1, 24 h
[29] = Effect on TNFalpha mRNA expression in TLR2-/- mouse BMDM cells at 0.1 to 1 uM by qRT-PCR analysis; type: ADME, cell-based

CCCCCCCCCCCCCCCC(=O)N[C@@H](CSC[C@@H](COC(=O)CCCCCCCCCCCCCCC)OC(=O)CCCCCCCCCCCCCCC)C(=O)N[C@@H](CO)C(=O)N[C@@H](CCCCN)C(=O)N[C@@H](CCCCN)C(=O)N[C@@H](CCCCN)C(=O)N[C@@H](CCCCN)C(=O)O (Palmitoyl-C(Propyl(2R-PamO,3-PamO))SKKKK-OH)
Activity [1]: Non-Toxic
Activity [2]: Non-Toxic
Activity [3]: Dose-dependent effect
Activity [4]: Dose-dependent effect
Activity (THP-1 [5]): inactive
Activity (TLR2/TLR6 (Homo sapiens) [6]): inactive
Activity (BMDM [7]): Active

CCCCCCCCCCCCCCCC(=O)N[C@@H](CSCCNC(=O)OCCCCCCCCCCCCCC)C(=O)N[C@H](CO)C(=O)N[C@@H](CCCCN)C(=O)N[C@@H](CCCCN)C(=O)N[C@@H](CCCCN)C(=O)N[C@@H](CCCCN)C(=O)O
Activity (BMDM [8]): Active
Activity (BMDM [9]): inactive
Activity [10]: inactive
Activity [11]: inactive
Activity [3]: Dose-dependent effect
Activity [4]: Dose-dependent effect
Activity [12]: inactive
Activity [13]: Active
Activity [14]: Active

CCCCCCCCCCCCCCCCOC(=O)NCCSC[C@H](NC(=O)CCCCCCCCCCCCCCC)C(=O)N[C@H](CO)C(=O)N[C@@H](CCCCN)C(=O)N[C@@H](CCCCN)C(=O)N[C@@H](CCCCN)C(=O)O
Activity (BMDM [8]): Active
Activity [12]: Active
Activity [15]: Active

CCCCCCCCCCCCCCCC(=O)N[C@@H](CSCCOC(=O)CCCCCCCCCCCCCCC)C(=O)N[C@@H](CO)C(=O)N[C@@H](CCCCN)C(=O)N[C@@H](CCCCN)C(=O)N[C@@H](CCCCN)C(=O)N[C@@H](CCCCN)C(=O)O
Activity [1]: Non-Toxic
Activity [2]: Non-Toxic
Activity (BV-2 [16]): Non-Toxic
Activity (BV-2 [17]): Active

CCCCCCCCCCCCCCCCOC(=O)NCCSC[C@H](NC(=O)NCCCCCCCCCCCCCC)C(=O)N[C@H](CO)C(=O)N[C@@H](CCCCN)C(=O)N[C@@H](CCCCN)C(=O)N[C@@H](CCCCN)C(=O)N[C@@H](CCCCN)C(=O)O
Activity (BMDM [8]): inactive
Activity (TLR2/TLR6 (Homo sapiens) [18]): inactive
Activity [19]: inactive
Activity [15]: Active

CCCCCCCCCCCCCCCCOC(=O)NCCSC[C@H](NC(=O)CCCCCCCCCCCCCCC)C(=O)N[C@H](CO)C(=O)N[C@@H](CCCCN)C(=O)N[C@@H](CCCCN)C(=O)N[C@@H](CCCCN)C(=O)N[C@@H](CCCCN)C(=O)O
Activity [20]: inactive
Activity [21]: Dose-dependent effect
Activity (BMDM [8]): Active
Activity (BMDM [9]): inactive
Activity [10]: inactive
Activity [11]: inactive
Activity [3]: Dose-dependent effect
Activity [4]: Dose-dependent effect
Activity [22]: Active
Activity [23]: Active
Activity [24]: Active
Activity [12]: Active
Activity (THP-1 [5]): inactive
Activity (TLR2/TLR6 (Homo sapiens) [6]): inactive
Activity [15]: Active
Activity [13]: Active
Activity [14]: Active

CCCCCCCCCCCCCCCCOC(=O)NCCSC[C@H](NC(=O)CCCCCCCCCCCCCCC)C(=O)N[C@@H](CO)C(=O)N[C@@H](CCCCN)C(=O)N[C@@H](CCCCN)C(=O)N[C@@H](CCCCN)C(=O)N[C@@H](CCCCN)C(=O)O
pEC50 (Toll-like receptor 2): 7.08
Activity [1]: Non-Toxic
Activity [2]: Non-Toxic
Activity (Dendritic cell [25]): Active
Activity (Dendritic cell [26]): Non-Toxic
Activity (Dendritic cell [27]): Non-Toxic
Activity (THP-1 [28]): Non-Toxic
Activity (BV-2 [16]): Non-Toxic
Activity (BV-2 [17]): Active
Activity [29]: Non-Toxic

CCCCCCCCCCCCCCCC(=O)N[C@@H](CSCCNC(=O)OCCCCCCCCCCCCCC)C(=O)N[C@@H](CO)C(=O)N[C@@H](CCCCN)C(=O)N[C@@H](CCCCN)C(=O)N[C@@H](CCCCN)C(=O)N[C@@H](CCCCN)C(=O)O
Activity [1]: Non-Toxic
Activity [2]: Non-Toxic
Activity (BV-2 [17]): Active

CCCCCCCCCCCCCCCCOC(=O)NCCSC[C@H](NC(=O)NCCCCCCCCCCCCCC)C(=O)N[C@@H](CO)C(=O)N[C@@H](CCCCN)C(=O)N[C@@H](CCCCN)C(=O)N[C@@H](CCCCN)C(=O)N[C@@H](CCCCN)C(=O)O
Activity (BV-2 [16]): Non-Toxic

CCCCCCCCCCCCCCCC(=O)NCCSC[C@H](NC(=O)CCCCCCCCCCCCCCC)C(=O)N[C@H](CO)C(=O)N[C@@H](CCCCN)C(=O)N[C@@H](CCCCN)C(=O)N[C@@H](CCCCN)C(=O)N[C@@H](CCCCN)C(=O)O
Activity (BMDM [8]): inactive
Activity [12]: inactive

CCCCCCCCCCCCCCCC(=O)N[C@@H](CSCCOC(=O)CCCCCCCCCCCCCCC)C(=O)N[C@H](CO)C(=O)N[C@@H](CCCCN)C(=O)N[C@@H](CCCCN)C(=O)N[C@@H](CCCCN)C(=O)N[C@@H](CCCCN)C(=O)O
Activity (BMDM [8]): Dose-dependent effect
Activity (BMDM [9]): inactive
Activity [10]: inactive
Activity [11]: inactive
Activity [3]: Dose-dependent effect
Activity [4]: Dose-dependent effect
Activity [12]: Active
Activity (THP-1 [5]): inactive
Activity (TLR2/TLR6 (Homo sapiens) [6]): inactive
Activity [15]: Active
Activity [13]: Active
Activity [14]: Active

CCCCCCCCCCCCCCCCNC(=O)NCCSC[C@H](NC(=O)CCCCCCCCCCCCCCC)C(=O)N[C@H](CO)C(=O)N[C@@H](CCCCN)C(=O)N[C@@H](CCCCN)C(=O)N[C@@H](CCCCN)C(=O)N[C@@H](CCCCN)C(=O)O
Activity (BMDM [8]): inactive
Activity [12]: inactive

CCCCCCCCCCCCCCCCOC(=O)NCCSC[C@H](NC(=O)CCCCCCCCCCCCCCC)C(=O)N[C@@H](CO)C(=O)N[C@@H](CCCCN)C(=O)N[C@@H](CCCCN)C(=O)N[C@@H](CCCCN)C(=O)O
Activity (BV-2 [16]): Non-Toxic
